Source: ChEMBL document CHEMBL1208749 (2010)

Tested on: 3T3-L1
Assay: Glucose uptake enhancing activity in insulin-stimulated mouse 3T3L1 cells at 10 uM after 4 days by FLIPR based 2-DG uptake assay relative to control
Type: functional

For `O=c1cc(-c2ccc(O)cc2)oc2c([C@@H]3O[C@H](CO)[C@@H](O)[C@H](O)[C@H]3O)c(O)cc(O)c12`, which fold change (FC) is on record?
The fold change (FC) was 1.1.

For `O=c1c(-c2ccc(O)cc2)coc2c(CC(O)CO)c(O)ccc12` (stereo not drawn), which “fold change (FC)” value is on record?
The value was 1.5.

For `O=c1c(-c2ccc(O)cc2)coc2cc(O)c([C@H]3O[C@@H](CO)[C@H](O)[C@@H](O)[C@@H]3O)c(O)c12`, which “fold change (FC)” value is on record?
The value was 1.5.

How did the “fold change (FC)” value turn out when `O=c1c(-c2ccc(O[C@@H]3O[C@H](CO)[C@@H](O)[C@H](O)[C@H]3O)cc2)coc2cc(O)ccc12` was run?
The value was 1.15.

How did the “fold change (FC)” value turn out when `O=c1c(-c2ccc(O)cc2)coc2cc(O)ccc12` [DAIDZEIN] was run?
Its value is 1.5.

How did the “fold change (FC)” value turn out when `O=C1c2c(O)cc(O)c([C@@H]3O[C@H](CO)[C@@H](O)[C@H](O)[C@H]3O)c2OCC1c1ccc(O)cc1` (stereo partly drawn) was run?
The value was 1.1.

For `O=c1c(-c2ccc(O)cc2)coc2c([C@@H]3O[C@H](CO)[C@@H](O)[C@H](O)[C@H]3O)c(O)ccc12` [PUERARIN], which “fold change (FC)” value is on record?
The value was 1.5.

`O=c1c(-c2ccc(O)cc2)coc2cc(O[C@@H]3O[C@H](CO)[C@@H](O)[C@H](O)[C@H]3O)ccc12` [DAIDZIN] was tested. Which “fold change (FC)” value did it give?
Its value is 1.15.
